The values below come from patent US7420056B2, “Substituted bicyclic imidazo-3-ylamine compounds” (Gruenenthal GmbH, priority 2004, dated 2008).

This test deals with mGluR5 receptor (Sus scrofa, UniProt I3LUI7). Briefly: Affinity for the mGluR5 receptor: inhibition of 3[H]-MPEP binding in pig brain homogenate. The note with it: 10 μM compound, 5 nM 3[H]-MPEP, read-out: mGluR5 receptor inhibition of ^3[H]-MPEP binding [10 μM] in % at a concentration of the example compounds of 10 μM. The method, boiled down: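 Test compounds were screened at 10 μM for displacement of 5 nM [3H]-MPEP from pig brain homogenate (450 μg protein, pH 8.0 Hepes buffer) over 60 min at room temperature. After filtration, scintillation counting gave the read-out. 10 μM unlabelled MPEP set nonspecific binding.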
Sequence of mGluR5 receptor (I3LUI7 19-1212): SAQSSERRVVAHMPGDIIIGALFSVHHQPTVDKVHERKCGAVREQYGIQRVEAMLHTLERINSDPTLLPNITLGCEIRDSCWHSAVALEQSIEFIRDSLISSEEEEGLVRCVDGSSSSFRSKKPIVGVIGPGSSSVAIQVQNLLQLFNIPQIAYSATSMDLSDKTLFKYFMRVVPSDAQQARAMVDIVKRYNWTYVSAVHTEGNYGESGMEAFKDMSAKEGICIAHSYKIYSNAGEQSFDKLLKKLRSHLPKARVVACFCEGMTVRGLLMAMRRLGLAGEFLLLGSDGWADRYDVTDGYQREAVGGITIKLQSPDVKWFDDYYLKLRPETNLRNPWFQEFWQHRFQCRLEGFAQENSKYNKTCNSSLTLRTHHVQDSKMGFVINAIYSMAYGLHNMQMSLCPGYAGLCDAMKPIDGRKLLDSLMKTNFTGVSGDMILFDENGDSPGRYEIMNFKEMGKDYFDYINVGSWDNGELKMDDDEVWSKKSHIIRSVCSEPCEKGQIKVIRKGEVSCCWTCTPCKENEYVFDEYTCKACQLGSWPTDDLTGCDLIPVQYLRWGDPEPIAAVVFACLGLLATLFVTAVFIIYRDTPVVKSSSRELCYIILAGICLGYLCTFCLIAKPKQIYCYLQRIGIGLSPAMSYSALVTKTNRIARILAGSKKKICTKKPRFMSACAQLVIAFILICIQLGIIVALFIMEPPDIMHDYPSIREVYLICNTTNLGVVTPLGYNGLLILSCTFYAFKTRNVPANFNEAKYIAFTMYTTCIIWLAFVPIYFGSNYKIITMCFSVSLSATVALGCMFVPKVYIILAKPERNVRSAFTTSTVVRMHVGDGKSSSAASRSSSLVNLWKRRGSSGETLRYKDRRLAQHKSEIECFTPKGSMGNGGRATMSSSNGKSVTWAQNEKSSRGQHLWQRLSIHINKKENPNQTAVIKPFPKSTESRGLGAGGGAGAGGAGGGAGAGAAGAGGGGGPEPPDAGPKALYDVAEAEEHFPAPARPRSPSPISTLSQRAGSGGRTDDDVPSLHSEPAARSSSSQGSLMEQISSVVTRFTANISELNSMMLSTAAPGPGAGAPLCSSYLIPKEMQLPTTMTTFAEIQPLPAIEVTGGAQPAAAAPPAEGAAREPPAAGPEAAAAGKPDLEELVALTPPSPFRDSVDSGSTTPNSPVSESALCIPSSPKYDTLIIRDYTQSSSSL

Regarding `CCCc1ccn2c(Nc3ccco3)c(-c3ccc(C#Cc4ccccc4)o3)nc2c1` [Example 225, N-(furan-2-yl)-2-(5-(phenylethynyl)furan-2-yl)-7-propylimidazo[1,2-a]pyridin-3-amine], the inhibition at 10 µM stood at 43%.

For `Cc1cc(C)n2c(Nc3cccc(C(F)(F)F)c3)c(-c3cc(C#Cc4ccccc4)cs3)nc2n1` [Example 226, 5,7-dimethyl-2-(4-(phenylethynyl)thiophen-2-yl)-N-(3-(trifluoromethyl)phenyl)imidazo[1,2-a]pyrimidin-3-amine], the inhibition at 10 µM came to 41%.

For the molecule `Cc1cc(Br)cn2c(NCCc3ccc(Cl)cc3)c(-c3cc(C#Cc4ccccc4)cs3)nc12` [Example 227, 6-bromo-N-(4-chlorophenethyl)-8-methyl-2-(4-(phenylethynyl)thiophen-2-yl)imidazo[1,2-a]pyridin-3-amine], the inhibition at 10 µM amounted to 61%.

Consider `Clc1ccc(CCNc2c(-c3cc(C#Cc4ccccc4)cs3)nc3cc(-c4ccccc4)ccn23)cc1` [Example 228, N-(4-chlorophenethyl)-7-phenyl-2-(4-(phenylethynyl)thiophen-2-yl)imidazo[1,2-a]pyridin-3-amine], for which the inhibition at 10 µM came to 43%.

For `C(#Cc1csc(-c2nc3cc(-c4ccccc4)ccn3c2NCCc2ccccc2)c1)c1ccccc1` [Example 229, N-phenethyl-7-phenyl-2-(4-(phenylethynyl)thiophen-2-yl)imidazo[1,2-a]pyridin-3-amine], the inhibition at 10 µM is 30%.

For the molecule `Cc1cc(C)n2c(NCc3ccc(Cl)cc3)c(-c3cc(C#Cc4ccccc4)cs3)nc2c1` [Example 230, N-(4-chlorobenzyl)-5,7-dimethyl-2-(4-(phenylethynyl)thiophen-2-yl)imidazo[1,2-a]pyridin-3-amine], the inhibition at 10 µM worked out at 60%.

`Cc1c(Br)ccc2nc(-c3cc(C#Cc4ccccc4)cs3)c(NCc3ccc(Cl)cc3)n12` [Example 231, 6-bromo-N-(4-chlorobenzyl)-5-methyl-2-(4-(phenylethynyl)thiophen-2-yl)imidazo[1,2-a]pyridin-3-amine]: the inhibition at 10 µM was 62%.

`Cc1cc(Br)c2nc(-c3cc(C#Cc4ccccc4)cs3)c(NCc3ccc(Cl)cc3)n2c1` [Example 232, 8-bromo-N-(4-chlorobenzyl)-6-methyl-2-(4-(phenylethynyl)thiophen-2-yl)imidazo[1,2-a]pyridin-3-amine]: the inhibition at 10 µM was 75%.

`CCCc1cccc2nc(-c3cc(C#Cc4ccccc4)cs3)c(NCCc3cccc(OC)c3)n12` [Example 233, N-(3-methoxyphenethyl)-2-(4-(phenylethynyl)thiophen-2-yl)-5-propylimidazo[1,2-a]pyridin-3-amine]: the inhibition at 10 µM turned out to be 75%.

On to `Cc1cc(Br)cn2c(NCCc3cccs3)c(-c3cc(C#Cc4ccccc4)cs3)nc12` [Example 234, 6-bromo-8-methyl-2-(4-(phenylethynyl)thiophen-2-yl)-N-(2-(thiophen-2-yl)ethyl)imidazo[1,2-a]pyridin-3-amine], for which the inhibition at 10 µM was found to be 64%.

As to `C(#Cc1csc(-c2nc3cc(-c4ccccc4)ccn3c2NCCc2cccs2)c1)c1ccccc1` [Example 235, 7-phenyl-2-(4-(phenylethynyl)thiophen-2-yl)-N-(2-(thiophen-2-yl)ethyl)imidazo[1,2-a]pyridin-3-amine], the inhibition at 10 µM is 32%.

On to `CCCC(C)(C)Nc1c(-c2ccc(C#Cc3ccccc3)s2)nc2c(Br)cc(Br)cn12` [Example 236, 6,8-dibromo-N-(2-methylpentan-2-yl)-2-(5-(phenylethynyl)thiophen-2-yl)imidazo[1,2-a]pyridin-3-amine], for which the inhibition at 10 µM is 66%.

For the molecule `Cc1cccc(C)c1Nc1c(-c2cc(C#Cc3ccccc3)cs2)nc2c(C)cc(Br)cn12` [Example 237, 6-bromo-N-(2,6-dimethylphenyl)-8-methyl-2-(4-(phenylethynyl)thiophen-2-yl)imidazo[1,2-a]pyridin-3-amine], the inhibition at 10 µM was found to be 36%.

As for `C(#Cc1ccccn1)c1cccc(-c2nc3cnccn3c2NC2CCCCC2)c1` [Example 238, N-cyclohexyl-2-(3-(pyridin-2-ylethynyl)phenyl)imidazo[1,2-a]pyrazin-3-amine], the inhibition at 10 µM worked out at 92%.

With `CC(C)(C)CC(C)(C)Nc1c(-c2cccc(C#Cc3ccccn3)c2)nc2cnccn12` [Example 239, 2-(3-(pyridin-2-ylethynyl)phenyl)-N-(2,4,4-trimethylpentan-2-yl)imidazo[1,2-a]pyrazin-3-amine], the inhibition at 10 µM was 60%.

As to `C(#Cc1ccccn1)c1ccc(-c2nc3cnccn3c2NC2CCCC2)cc1` [Example 240, N-cyclopentyl-2-(4-(pyridin-2-ylethynyl)phenyl)imidazo[1,2-a]pyrazin-3-amine], the inhibition at 10 µM was 95%.

Consider `CC(C)(C)CC(C)(C)Nc1c(-c2ccc(C#Cc3ccccn3)cc2)nc2c(Cl)cc(C(F)(F)F)cn12` [Example 241, 8-chloro-2-(4-(pyridin-2-ylethynyl)phenyl)-6-(trifluoromethyl)-N-(2,4,4-trimethylpentan-2-yl)imidazo[1,2-a]pyridin-3-amine], for which the inhibition at 10 µM was found to be 65%.

Regarding `Fc1ccc(Nc2c(-c3ccc(C#Cc4ccccn4)cc3)nc3cnccn23)cc1` [Example 242, N-(4-fluorophenyl)-2-(4-(pyridin-2-ylethynyl)phenyl)imidazo[1,2-a]pyrazin-3-amine], the inhibition at 10 µM came to 91%.

Consider `Cc1nc(C#Cc2ccccc2)ccc1-c1nc2cnccn2c1NC1CCCC1` [Example 243, N-cyclopentyl-2-(2-methyl-6-(phenylethynyl)pyridin-3-yl)imidazo[1,2-a]pyrazin-3-amine], for which the inhibition at 10 µM was 80%.

As for `Cc1nc(C#Cc2ccccc2)ccc1-c1nc2cnccn2c1NC1CCCCC1` [Example 244, N-cyclohexyl-2-(2-methyl-6-(phenylethynyl)pyridin-3-yl)imidazo[1,2-a]pyrazin-3-amine], the inhibition at 10 µM came to 54%.

Regarding `C(#Cc1ccc(-c2nc3cnccn3c2NC2CCCC2)o1)c1ccccn1` [Example 245, N-cyclopentyl-2-(5-(pyridin-2-ylethynyl)furan-2-yl)imidazo[1,2-a]pyrazin-3-amine], the inhibition at 10 µM was 92%.

As for `Cc1cc(Br)c2nc(-c3ccc(C#Cc4ccccn4)o3)c(NC3CCCC3)n2c1` [Example 246, 8-bromo-N-cyclopentyl-6-methyl-2-(5-(pyridin-2-ylethynyl)furan-2-yl)imidazo[1,2-a]pyridin-3-amine], the inhibition at 10 µM is 74%.

Take `C(#Cc1ccc(-c2nc3cnccn3c2NC2CCCCC2)o1)c1ccccn1` [Example 247, N-cyclohexyl-2-(5-(pyridin-2-ylethynyl)furan-2-yl)imidazo[1,2-a]pyrazin-3-amine]: the inhibition at 10 µM was 83%.

On to `CC(C)(C)CC(C)(C)Nc1c(-c2ccc(C#Cc3ccccn3)o2)nc2cnccn12` [Example 248, 2-(5-(pyridin-2-ylethynyl)furan-2-yl)-N-(2,4,4-trimethylpentan-2-yl)imidazo[1,2-a]pyrazin-3-amine], for which the inhibition at 10 µM was found to be 68%.

For `Cc1cccc(C#Cc2cccc(-c3nc4cnccn4c3NC3CCCC3)c2)n1` [Example 249, N-cyclopentyl-2-(3-((6-methylpyridin-2-yl)ethynyl)phenyl)imidazo[1,2-a]pyrazin-3-amine], the inhibition at 10 µM worked out at 80%.

Consider `Cc1cc(Br)c2nc(-c3ccc(C#Cc4ccccn4)cc3)c(NC3CCCC3)n2c1` [Example 250, 8-bromo-N-cyclopentyl-6-methyl-2-(4-(pyridin-2-ylethynyl)phenyl)imidazo[1,2-a]pyridin-3-amine], for which the inhibition at 10 µM stood at 69%.

As for `Cc1cccc(C#Cc2cccc(-c3nc4cnccn4c3NC3CCCCC3)c2)n1` [Example 251, N-cyclohexyl-2-(3-((6-methylpyridin-2-yl)ethynyl)phenyl)imidazo[1,2-a]pyrazin-3-amine], the inhibition at 10 µM is 80%.

Consider `Cc1cccc(C#Cc2cccc(-c3nc4cnccn4c3Nc3ccc(F)cc3)c2)n1` [Example 252, N-(4-fluorophenyl)-2-(3-((6-methylpyridin-2-yl)ethynyl)phenyl)imidazo[1,2-a]pyrazin-3-amine], for which the inhibition at 10 µM came out at 86%.

On to `CC(C)(C)CC(C)(C)Nc1c(-c2ccc(C#Cc3ccccn3)s2)nc2ncccn12` [Example 253, 2-(5-(pyridin-2-ylethynyl)thiophen-2-yl)-N-(2,4,4-trimethylpentan-2-yl)imidazo[1,2-a]pyrimidin-3-amine], for which the inhibition at 10 µM stood at 73%.

In the case of `C(#Cc1ccccn1)c1cccc(-c2nc3ncccn3c2NC2CCCCC2)c1` [Example 254, N-cyclohexyl-2-(3-(pyridin-2-ylethynyl)phenyl)imidazo[1,2-a]pyrimidin-3-amine], the inhibition at 10 µM is 77%.

`CC(C)(C)CC(C)(C)Nc1c(-c2cccc(C#Cc3ccccn3)c2)nc2ncccn12` [Example 255, 2-(3-(pyridin-2-ylethynyl)phenyl)-N-(2,4,4-trimethylpentan-2-yl)imidazo[1,2-a]pyrimidin-3-amine]: the inhibition at 10 µM was determined as 81%.

Take `CC(C)(C)CC(C)(C)Nc1c(-c2ccc(C#Cc3ccccc3)nc2)nc2ncccn12` [Example 256, 2-(6-(phenylethynyl)pyridin-3-yl)-N-(2,4,4-trimethylpentan-2-yl)imidazo[1,2-a]pyrimidin-3-amine]: the inhibition at 10 µM was 43%.

For `C(#Cc1ccc(-c2nc3ncccn3c2NC2CCCC2)o1)c1ccccn1` [Example 257, N-cyclopentyl-2-(5-(pyridin-2-ylethynyl)furan-2-yl)imidazo[1,2-a]pyrimidin-3-amine], the inhibition at 10 µM was found to be 77%.

In the case of `CC(C)(C)Nc1c(-c2ccc(C#Cc3ccccn3)o2)nc2ncccn12` [Example 258, N-tert-butyl-2-(5-(pyridin-2-ylethynyl)furan-2-yl)imidazo[1,2-a]pyrimidin-3-amine], the inhibition at 10 µM is 86%.

As to `Cc1cccc(C#Cc2cccc(-c3nc4ncccn4c3NC3CCCC3)c2)n1` [Example 259, N-cyclopentyl-2-(3-((6-methylpyridin-2-yl)ethynyl)phenyl)imidazo[1,2-a]pyrimidin-3-amine], the inhibition at 10 µM turned out to be 82%.
